From patent US20070207975A1, “Materials and methods for treating and preventing Her-2/neu overexpressing, FAS-elevated cancer cells” (EVANSTON NORTHWESTERN HEALTHCARE, priority 2006, published 2007)

How the values were obtained:
Type in all cases: cell-based, human
p185^Her-2/neu = experiment: Flow cytometric analysis of cell surface-associated p185Her-2/neu; details: for reduction of cell surface-associated p185^Her-2/neu expression: 10 mM OA, 48 hours, 0.1% FBS; for down-regulation of p185^Her-2/neu expression: OA 5 mM, trastuzumab 5 mg/ml
Excerpt: FIG. 1. […] FIG. 2. […] The amount of cell surface-associated p185^Her-2/neu was quantified by flow cytometric analyses using a specific antibody against the extracellular domain of p185^Her-2/neu (Ab-5), as described herein. The mean fluorescence signal±SD (n=3) was quantified using the geo mean fluorescence (GM) parameter provided with the Cell Quest Software (Becton Dickinson). […] After labeling, cells were washed thoroughly, and localization of p185^Her-2/neu was detected by indirect immunofluorescence by incubating with FITC-conjugated anti-mouse IgG. After counterstaining with DAPI, cells were examined and photographed using a Zeiss fluorescent microscope equipped with a built-in camera. […] Before experiments, cells were serum-starved overnight and then cultured in IMEM containing 0.1% FBS in the absence or presence of GLA (Sigma Chemical Co., St. Louis, Mo.). GLA was prepared at a concentration of 1 mg/mL in ethanol and was added to a final concentration of 0, 5, 10, or 20 μg/mL; an equal volume of ethanol was added to control cells. […] A) Cell surface expression of Her-2/neu protein in BT-474 and SK-Br3 cells was determined by flow cytometry using a mouse anti-Her-2/neu antibody directed against the extracellular domain of the p185^Her-2/neu oncoprotein (clone Ab-5; Oncogene Research Products; San Diego, Calif.). Briefly, after GLA or control treatment, cells were washed, harvested, resuspended in phosphate-buffered saline (PBS) containing 1% FBS, and incubated with 5 μg/mL Ab-5 antibody for 1 hour at 4° C. The cells were washed again and then incubated with a fluorescein isothiocyanate (FITC)-conjugated anti-mouse IgG secondary antibody (Jackson ImnunoResearch Laboratories, West Grove, Pa.) diluted 1:200 in cold PBS containing 1% FBS for 45 minutes at 4° C. The cells were washed once more in cold PBS, and flow cytometric analysis was performed with a FACScalibur flow cytometer (Becton Dickinson, San Diego, Calif.) equipped with Cell Quest Software (Becton Dickinson). […] As a control for nonspecific immunofluorescence, cells were stained with the secondary antibody alone (solid black line). The mean fluorescence signal associated with cells for labeled p185^Her-2/neu was quantified using the Geo Mean (GM) fluorescence parameter provided with the software. […] B) Immunoblot analysis of Her-2/neu and PEA3 proteins in control- and GLA-treated BT-474 and SK-Br3 cells. […] Immunoreactive bands were detected by enhanced chemiluminescence reagent (Pierce, Rockford, Ill.). Blots were reprobed with an anti-β-actin goat polyclonal antibody (Santa Cruz Biotechnology) to control for protein loading and transfer. Densitometric values of protein bands were quantified using Scion Imaging Software (Scion Corp., Frederick, Md.).

BT-474 cells = experiment: TUNEL apoptosis assay, BT-474
Description: FIG. 6. […] The immunofluorescence photomicrographs of cells undergoing apoptosis (green staining) and the corresponding DAPI-counterstained photomicrographs are shown. […] Equal amounts of total protein (50 μg per lane) were subjected to Western blot analyses with a specific antibody against the p85 fragment of PARP, and then re-probed with a β-actin antibody. […] For each pair of columns, the height of the columns on the left represents the sum of the effect of each agent alone and, therefore, the expected apoptotic cell death if their effect was additive when used in combination. The total height of the columns on the right indicates the observed apoptosis when the agents were used in combination. […] A) Cell surface expression of Her-2/neu protein in BT-474 and SK-Br3 cells was determined by flow cytometry using a mouse anti-Her-2/neu antibody directed against the extracellular domain of the p185^Her-2/neu oncoprotein (clone Ab-5; Oncogene Research Products; San Diego, Calif.). […] The mean fluorescence signal associated with cells for labeled p185^Her-2/neu was quantified using the Geo Mean (GM) fluorescence parameter provided with the software. […] Immunoreactive bands were detected by enhanced chemiluminescence reagent (Pierce, Rockford, Ill.). […] Densitometric values of protein bands were quantified using Scion Imaging Software (Scion Corp., Frederick, Md.).

Her-2/neu protein = experiment: Immunoblot analysis of Her-2/neu protein
Her-2/neu mRNA = experiment: Semiquantitative RT-PCR of Her-2/neu transcripts

Row | SMILES | levels of cell surface-associated Her-2/neu protein versus vehicle-treated cells (p185^Her-2/neu; BT-474 and SK-Br3 cells, GLA 10 μg/mL for 48 hours) | cells that underwent apoptosis (TUNEL) (BT-474 cells; GLA 10 μg/mL, trastuzumab 10 μg/mL, alone or together, 48 hours) | Her-2/neu protein levels (Her-2/neu protein; BT-474 and SK-Br3, GLA 10 μg/mL for 48 hours) | Her-2/neu protein levels (Her-2/neu protein; MDA-MB-231 (low Her-2/neu), GLA exposure) | Her-2/neu protein levels (Her-2/neu protein; MDA-MB-453, SK-OV3 and NCI-N87, GLA 10 μg/mL for 48 hours) | transcription of the Her-2/neu gene (RT-PCR) (Her-2/neu mRNA; BT-474 and SK-Br3, GLA 5, 10, or 20 μg/ml for 48 hours) | reduction of cell surface-associated p185^Her-2/neu expression (p185^Her-2/neu; BT-474 cells) | down-regulation of p185^Her-2/neu expression (p185^Her-2/neu; BT-474 cells, alone or concurrently combined) [%] | reduction of cell surface-associated p185^Her-2/neu expression (p185^Her-2/neu; SK-Br3 cells) | down-regulation of p185^Her-2/neu expression (p185^Her-2/neu; SK-Br3 cells, alone or combined) [%] | TUNEL-positive cells (BT-474 cells; OA 5 μM, trastuzumab 10 μg/ml, alone or simultaneously, 72 hours) [%] | Her-2/neu protein levels (Her-2/neu protein; MCF-7/Her2-18 transfectants (SV40 promoter), OA treatment) | Her-2/neu protein levels (Her-2/neu protein; MCF-7/neo cells, OA supplementation) | Her-2/neu protein expression (Her-2/neu protein; SK-Br3, SK-OV3 and NCI-N87, OA 20 μM, 48 hours) | expression levels of Her-2/neu transcripts (RT-PCR) (Her-2/neu mRNA; OA-treated SK-Br3 cells)
1 | CCCCCC=CCC=CCC=CCCCCC(=O)O [GLA, 6,9,12-octadecatrienoic acid] | substantially lower | 5% (95% confidence interval [CI]=4% to 6%) | substantial reduction | did not affect | markedly decreased | Strong, dose-dependent decreases | – | – | – | – | – | – | – | – | –
2 | CCCCCCCCC=CCCCCCCCC(=O)O [OA, 9-octadecenoic acid] | – | – | – | – | – | – | up to 46% | 36 | up to 36% | 24 | 2 | failed to decrease | not significantly affected | down-regulation | significant reduction
